Reference: US20100093642A1, “NOVEL POLYPEPTIDES” (priority 2006, published 2010)
Converted amounts (≈) assume the structure as drawn. Residues, ends and D or L forms follow the SMILES beside them. No end group written: not given here.

Experiments:
TNF-α = experiment: Inhibition of LPS induced TNF-α response in THP-1 cells (ELISA); format: cell-based, human; details: Ratio TC50 (THP-1)/EC50 (anti-TNFα)
Procedure: FIG. 12. Antiinnflammatory response measured as inhibition of tumor necrosis factor alpha (TNF-α) response in THP-1 cells after stimulation with LPS. THP-1 cells (1×10^6 cells/ml) were treated with P17 derivates in different concentrations for 1 hour, and subsequently stimulated with 100 ng/ml LPS for 6 hours. LPS was used as control for induction of TNF-α. (set as 100% response), RPMI media was used as negative (non-stimulated) control, and cycloheximide (Chx, 10 μg/ml) was used as a an inhibitory control for LPS induced TNF-α. The data presented are the average of two parallells. (A) The effect of the peptides P17 HC and P17 HC (1-20). (B) The effect of the peptides P17 HC (11-20) and P17 HC-Br.
The THP-1 cells (ATCC, TIB-202) were maintained in suspension in RPMI-1640 medium with 25 mM HEPES and 2 mM Glutamax I supplemented with 10% FBS (growth medium) in a humidified atmosphere of 5% CO2 at 37° C. Cells to be used in the assay were grown to a density of 8×10^5-1×10^6 cells/ml. The cells were centrifuged for 7 min at 200 g and the cell pellet was resuspended to a concentration of 10^6 cells/ml in RPMI-1640 with 10% FBS.
To allow examination of antiinflammatory effects of the peptides on basal and stimulated cytokine production, peptide-treated macrophages were cultured in the presence of LPS and the levels of TNF-α were measured. The primary screening was based on a mammalian cell line; the human THP-1 line. This line is of monocyte/macrophage origin and responds to various stimuli by increased production of cytokines, like TNF-α and the IL-1β, (Wang et al. 2000). To induce monocyte-macrophage differentiation, THP-1 cells were cultured in 96-well culture plates (10^6 cells/well) in a volume of 100 μl RPMI 1640 medium, containing 50 ng/ml PMA (which is known to induce the maturation of monocytes) and incubated in a humidified atmosphere of 5% CO2, at 37° C. for 48 hours. The medium was then removed and the cells were washed with PBS, added 100 μl fresh medium (without PMA) and incubated for another 24 hours. Medium was removed and the adherent macrophages were treated with 100 μl of peptide solution (concentrations ranging from 0 to 400 μg/ml), diluted in RPMI-1640 medium with 25 mM HEPES and 2 mM Glutamax I, but without […] (assay medium). After incubation at 37° C. for 1 hour, the cells were added LPS (0.1 μg/ml) and further incubated for 6 hours. […] TNF-α concentrations were quantified by the Human TNF-α ELISA MAX kit (BioLegend), according to the manufacturer's instructions. Duplicate readings for each standard, control and sample were recorded. The average absorbance for each set of standards, controls, and samples was calculated using a standard curve. Concentrations were determined by extrapolation on the standard curve.

Salmonella K14-40 = format: cell-based; details: clinical isolate; 37° C.; 3×10^6 cells per ml
Procedure: (§1) The antibacterial activities of the different peptides were determined by continuous monitoring of bacterial growth with a Bioscreen C microbiology reader (Labsystems Oy, Helsinki, Finland). The test was performed in 100-well flat-bottomed honeycomb plates, in which 50 μl of test fractions were incubated with 50 μl of a suspension of an actively growing culture of bacteria diluted in Mueller Hinton medium to a starting concentration of 3×10^4 cells per ml. The Gram-negative bacteria, Listonella (Vibrio) anguillarum, serotype O2 (FT 1801, a fish pathogenic strain), Pseudomonas aeruginosa and E. coli (ATCC 25922), and the Gram-positive bacteria, C. glutamicum (ATCC 13032) and S. aureus (ATCC 9144), were chosen as test bacteria. The growth chamber was maintained at either 20 or 37° C. during the incubation period. The absorbance was measured at 2 h intervals for 48 h by a turbidometric method with vertical light photometry and a wide band filter (420-580 nm), which is more insensitive to color change in the sample compared to single wavelength detection. Antibacterial activity was determined when the optical density (OD) of the growth control (bacteria plus water) reached an absorbance of 0.3-0.4. Fractions were regarded as active when the OD was less than 50% of the growth control. Polymyxin B (Sigma, St. Louis, Mo., USA), Lactoferricin B, Cecropin P1 and Hyalophora cecropia Cecropin B were used as reference.
(§2) The antimicrobial molecules were also tested against drug resistant clinical isolates, such as the commonly encountered multi-resistant human pathogen S. aureus (MRSA) K15-64 and the glycopeptide (vancomycin)-resistant Enterococccus faecium (GREF) K9-28. The non-clinical isolates Escherichia coli (ATCC 25922), Pseudomonas aeruginosa (ATCC 27853), Corynebacterium glutamicum (ATCC 13032), and Staphylococcus aureus (ATCC 9144) were also tested for comparison. Serial dilutions of synthetic peptides were made in double distilled water and tested according to the method described above. However, in these experiments the starting concentration of bacteria were 3×10^6 cells per ml and the temperature in the growth chamber was 37° C. Polymyxin B was used as positive control for the Gram-negative bacteria.

Klebsiella K15-72 = format: cell-based; details: clinical isolate; 37° C.; 3×10^6 cells per ml
Procedure: as §1, §2

Pseudomonas K15-60 = format: cell-based
Procedure: as §1, §2

[1] = system: Citrobacter freundii, K15-75; format: cell-based; details: clinical isolate; 37° C.; 3×10^6 cells per ml
Procedure: as §1, §2

[2] = system: Enterococcus faecium (GREF), K9-28; format: cell-based; details: vancomycin-resistant clinical isolate; 37° C.; 3×10^6 cells per ml
Procedure: as §1, §2

[3] = system: Corynebacterium glutamicum, ATCC 13032; format: cell-based; details: non-clinical isolate; 37° C.; 3×10^6 cells per ml
Procedure: as §1, §2

[4] = system: Staphylococcus aureus, ATCC 9144; format: cell-based; details: non-clinical isolate; 37° C.; 3×10^6 cells per ml
Procedure: as §1, §2

Escherichia coli, K15-58 = format: cell-based; details: clinical isolate; 37° C.; 3×10^6 cells per ml
Procedure: as §1, §2

[5] = system: Acinetobacter baumannilii, K15-9; format: cell-based; details: clinical isolate; 37° C.; 3×10^6 cells per ml
Procedure: as §1, §2

Bacillus spp K13-61 = format: cell-based; details: clinical isolate; 37° C.; 3×10^6 cells per ml
Procedure: as §1, §2

[6] = system: Staphylococcus aureus (MRSA), K15-64; format: cell-based; details: multi-resistant clinical isolate; 37° C.; 3×10^6 cells per ml
Procedure: as §1, §2

Molecule	Therapeutic index TC50/EC50 (TNF-α)	Minimal inhibitory concentration, Salmonella K14-40 (Salmonella K14-40) [µM]	Minimal inhibitory concentration, Klebsiella K15-72 (Klebsiella K15-72) [µM]	Minimal inhibitory concentration, Pseudomonas K15-60 (Pseudomonas K15-60) [µM]	Minimal inhibitory concentration, Citrobacter freundii, K15-75 [1] [µM]	Minimal inhibitory concentration, Enterococcus faecium (GREF), K9-28 [2] [µM]	Minimal inhibitory concentration, Corynebacterium glutamicum, ATCC 13032 [3] [µM]	Minimal inhibitory concentration, Staphylococcus aureus, ATCC 9144 [4] [µM]	Minimal inhibitory concentration, Escherichia coli, K15-58 (Escherichia coli, K15-58) [µM]	Minimal inhibitory concentration, Acinetobacter baumannilii, K15-9 [5] [µM]	Minimal inhibitory concentration, Bacillus spp K13-61 (Bacillus spp K13-61) [µM]	Minimal inhibitory concentration, Staphylococcus aureus (MRSA), K15-64 [6] [µM]
CC[C@H](C)[C@H](NC(=O)CNC(=O)[C@H](CO)NC(=O)[C@H](CCCCN)NC(=O)[C@@H](NC(=O)[C@H](C)NC(=O)[C@H](Cc1c[nH]cn1)NC(=O)[C@H](CO)NC(=O)[C@@H](NC(=O)[C@H](CCCCN)NC(=O)[C@H](Cc1c[nH]cn1)NC(=O)[C@H](Cc1ccccc1)NC(=O)[C@@H](NC(=O)[C@H](CCCCN)NC(=O)[C@H](CCCCN)NC(=O)[C@H](Cc1ccccc1)NC(=O)C(Cc1c[nH]c2ccc(Br)cc12)NC(=O)CN)[C@@H](C)O)C(C)C)C(C)C)C(=O)N[C@@H](Cc1c[nH]cn1)C(=O)N[C@@H](C)C(=O)NCC(=O)N[C@@H](CCC(N)=O)C(=O)N[C@@H](CCCNC(=N)N)C(=O)NCC(=O)N[C@@H](CS)C(=O)N[C@@H](CO)C(=O)N[C@@H](C)C(=O)N[C@@H](CC(C)C)C(=O)NCC(=O)N[C@@H](Cc1ccccc1)C(=O)O (stereo partly drawn) [P17 HC-Br] (HELM PEPTIDE1{G.[O=C(C(Cc1c[nH]c2ccc(Br)cc12)N[*:1])[*:2]].F.K.K.T.F.H.K.V.S.H.A.V.K.S.G.I.H.A.G.Q.R.G.C.S.A.L.G.F}$$$$V2.0)	46.5	6.25 (≈ 20.8 µg/mL)	3.12 (≈ 10.4 µg/mL)	3.12 (≈ 10.4 µg/mL)	1.56 (≈ 5.18 µg/mL)	0.78 (≈ 2.59 µg/mL)	0.78 (≈ 2.59 µg/mL)	12.5 (≈ 41.5 µg/mL)	3.12 (≈ 10.4 µg/mL)	1.56 (≈ 5.18 µg/mL)	6.25 (≈ 20.8 µg/mL)	6.25 (≈ 20.8 µg/mL)
GWFKKTFHKVSHAVKSGIHA [P17 HC (1-20)]	>17.4	50	>50	12.5	12.5	6.25	3.12	>50	6.25	6.25	50	>50
GWFKKTFHKVSHAVKSGIHAGQRGCSALGF [P17 HC]	13.6	6.25	3.12	3.12	0.78	0.39	0.78	12.5	1.56	3.12	6.25	6.25
